Data from US4492693A, “Benzothienylglycyl cephalosporin derivatives” (priority 1983, dated 1985).
Values after ≈ are worked out from the molar mass of the structure shown. Like-named read-outs stand apart in the source and are kept apart here.

What was measured:
[1] = test system: Strep. A; assay: Agar Dilution MIC (Table I); assay type: cell-based; details: read-out: Agar Dilution MIC
[2] = test system: Strep. PN; assay: Agar Dilution MIC (Table I); assay type: cell-based; details: strain PARK
[3] = test system: Strep. D; assay: Agar Dilution MIC (Table I); assay type: cell-based; details: read-out: Agar Dilution MIC
Description: (§1) A typical and preferred compound provided by this invention is 7-(3-benzothienyl)glycylamido-3-methyl-3-cephem-4-carboxylic acid, the compound illustrated in Example 9. The antibacterial activity of this compound has been determined in standard in vitro agar dilution assays against a variety of gram positive and gram negative microorganism. The following Tables present typical minimum inhibitory concentrations (MIC's) in μg/ml for several compounds of the invention when evaluated against the indicated microorganisms. MIC's for several known compounds are also presented for comparison.
Agar Dilution MIC (μg/ml)

[4] = test system: H. influ.; assay: Agar Dilution MIC (Table I); assay type: cell-based; details: read-out: Agar Dilution MIC
[5] = test system: E. coli; assay: Agar Dilution MIC (Table I); assay type: cell-based; details: Escherichia coli
[6] = test system: Klebsiella; assay: Agar Dilution MIC (Table I); assay type: cell-based; details: Klebsiella, read-out: Agar Dilution MIC
[7] = test system: H. influenzae; assay: Expanded Spectrum MIC (Table II); assay type: cell-based; details: Haemophilus influenzae
Description: as §1
(§2) Expanded Spectrum MIC (μg/ml)

[8] = test system: Staph. aureus; assay: Expanded Spectrum MIC (Table II); assay type: cell-based; details: Staphylococcus aureus
Description: as §1, §2

[9] = test system: Bacteroides corrodens; assay: Susceptibility of Anaerobic Bacteroides Isolates by the Agar-Dilution Method (Table III); assay type: cell-based; details: Eikenella corrodens; strain 1874; readings 24 hrs. after incubation
Description: as §1
(§3) Susceptibility of Anaerobic Bacteroides Isolates by the
(§4) Agar-Dilution Method MIC (μg/ml) readings 24 hrs. after incubation

[10] = test system: Bacteroides fragilis; assay: as above; assay type: cell-based; details: 24 h
Description: as §1, §3, §4

[11] = test system: Bacteroides thetaiotaomicron; assay: as above; assay type: cell-based; details: 24 h
Description: as §1, §3, §4

[12] = test system: Bacteroides fragilis; assay: Expanded anaerobic Spectrum MIC (Table IV); assay type: cell-based
[13] = test system: Haemophilus influenzae; assay: Expanded H. influenzae Spectrum MIC (Table IV); assay type: cell-based
[14] = test system: β-lactamase, organism 265A; assay: Stability to β-lactamase (Table V); assay type: biochemical; details: lower numbers mean greater stability
[15] = test system: β-lactamase, organism PS185; assay: Stability to β-lactamase (Table V); assay type: biochemical; details: lower numbers mean greater stability
[16] = test system: β-lactamase, organism TEM; assay type: biochemical; details: lower numbers mean greater stability
[17] = test system: β-lactamase, organism 1082E; assay: Stability to β-lactamase (Table V); assay type: biochemical; details: lower numbers mean greater stability
[18] = test system: β-lactamase, organism 1313G; assay: Stability to β-lactamase (Table V); assay type: biochemical; details: lower numbers mean greater stability
[19] = test system: bacteria; assay: Antibacterial activity (general statements); assay type: cell-based; details: anaerobic bacteria and Haemophilus influenzae, more strains
[20] = pKa (66% aqueous DMF); assay type: physicochemical
[21] = mean over strains, read-out: MIC mean

For `CC1=C(C(=O)O)N2C(=O)C(NC(=O)C(N)c3csc4ccccc34)C2SC1` (stereo not shown) [Ex. 9, 7-(3-Benzothienyl)glycylamido-3-methyl-3-cephem-4-carboxylic acid], the MIC [1] was 0.125 µg/mL (≈ 0.31 µM), the MIC [2] was 0.5 µg/mL (≈ 1.24 µM) and the MIC ([3]; strain 2041) was 64 µg/mL (≈ 159 µM). It also gave an MIC ([3]; strain X66) of 128 µg/mL (≈ 317 µM), an MIC ([4]; strain 76) of 0.5 µg/mL (≈ 1.24 µM) and an MIC ([4]; strain C.L.) of 2 µg/mL (≈ 4.96 µM). It also gave an MIC ([5]; strain EC14) of 32 µg/mL (≈ 79.3 µM), an MIC ([5]; strain N10) of 128 µg/mL (≈ 317 µM) and an MIC ([5]; strain TEM) of 32 µg/mL (≈ 79.3 µM). The MIC ([6]; strain KAE) was 128 µg/mL (≈ 317 µM), the MIC ([6]; strain X26) was 2 µg/mL (≈ 4.96 µM) and the MIC ([6]; strain X68) was 128 µg/mL (≈ 317 µM). The MIC ([7]; strain 76) was 1 µg/mL (≈ 2.48 µM), the MIC ([7]; strain 105) was 1 µg/mL (≈ 2.48 µM) and the MIC ([7]; strain 158) was 1 µg/mL (≈ 2.48 µM). The MIC ([7]; strain 164) was 1 µg/mL (≈ 2.48 µM), the MIC ([7]; strain 169) was 1 µg/mL (≈ 2.48 µM) and the MIC ([7]; strain 171) was 1 µg/mL (≈ 2.48 µM). The MIC ([7]; strain 312) was 1 µg/mL (≈ 2.48 µM), the MIC ([7]; strain 1683) was 0.5 µg/mL (≈ 1.24 µM) and the MIC ([7]; strain 1930) was 1 µg/mL (≈ 2.48 µM). For the same compound, the MIC ([7]; strain 4842) was 1 µg/mL (≈ 2.48 µM), the MIC ([7]; strain C.L.) was 2 µg/mL (≈ 4.96 µM) and the MIC ([7]; strain HESS) was 1 µg/mL (≈ 2.48 µM). The MIC ([7]; strain M366) was 64 µg/mL (≈ 159 µM), the MIC ([7]; strain M370) was 1 µg/mL (≈ 2.48 µM) and the MIC ([7]; strain M371) was 1 µg/mL (≈ 2.48 µM). It also gave an MIC ([7]; strain R465) of 64 µg/mL (≈ 159 µM), an MIC ([7]; strain STEL) of 64 µg/mL (≈ 159 µM) and an MIC ([8]; strain S224) of 1 µg/mL (≈ 2.48 µM). The MIC ([8]; strain S225) was 1 µg/mL (≈ 2.48 µM), the MIC ([8]; strain S226) was 2 µg/mL (≈ 4.96 µM) and the MIC ([8]; strain S227) was 1 µg/mL (≈ 2.48 µM). The MIC ([8]; strain S228) was 1 µg/mL (≈ 2.48 µM), the MIC ([8]; strain S229) was 2 µg/mL (≈ 4.96 µM) and the MIC ([8]; strain S230) was 1 µg/mL (≈ 2.48 µM). The MIC ([8]; strain S231) was 1 µg/mL (≈ 2.48 µM), the MIC ([8]; strain S234) was 2 µg/mL (≈ 4.96 µM) and the MIC ([8]; strain S237) was 1 µg/mL (≈ 2.48 µM). For the same compound, the MIC ([8]; strain S238) was 2 µg/mL (≈ 4.96 µM), the MIC ([8]; strain S239) was 2 µg/mL (≈ 4.96 µM) and the MIC [9] was 32 µg/mL (≈ 79.3 µM). The MIC ([10]; strain 9, readings 24 hrs. after incubation) was 4 µg/mL (≈ 9.91 µM), the MIC ([10]; strain 103, readings 24 hrs. after incubation) was 32 µg/mL (≈ 79.3 µM) and the MIC ([10]; strain 104, readings 24 hrs. after incubation) was 4 µg/mL (≈ 9.91 µM). The MIC ([10]; strain 106, readings 24 hrs. after incubation) was 4 µg/mL (≈ 9.91 µM), the MIC ([10]; strain 107, readings 24 hrs. after incubation) was 8 µg/mL (≈ 19.8 µM) and the MIC ([10]; strain 108, readings 24 hrs. after incubation) was 4 µg/mL (≈ 9.91 µM). It also gave an MIC ([10]; strain 110, readings 24 hrs. after incubation) of 8 µg/mL (≈ 19.8 µM), an MIC ([10]; strain 111, readings 24 hrs. after incubation) of 64 µg/mL (≈ 159 µM) and an MIC ([10]; strain 1877, readings 24 hrs. after incubation) of 8 µg/mL (≈ 19.8 µM). For the same compound, the MIC ([11]; strain 1438, readings 24 hrs. after incubation) was 4 µg/mL (≈ 9.91 µM), the MIC ([11]; strain 1900A, readings 24 hrs. after incubation) was 16 µg/mL (≈ 39.7 µM) and the MIC ([12]; geometric mean over strains, read-out: MIC Geometric mean) was 0.7 µg/mL (≈ 1.73 µM). The MIC [12, 21] was 1.2 µg/mL (≈ 2.97 µM), the MIC ([12]; strain 180-821, read-out: MIC) was 0.5 µg/mL (≈ 1.24 µM) and the MIC ([12]; strain 10668, read-out: MIC) was 0.5 µg/mL (≈ 1.24 µM). It also gave an MIC ([12]; strain 10683, read-out: MIC) of 0.5 µg/mL (≈ 1.24 µM), an MIC ([12]; strain 10695, read-out: MIC) of 0.5 µg/mL (≈ 1.24 µM) and an MIC ([12]; strain 10732, read-out: MIC) of 0.5 µg/mL (≈ 1.24 µM). For the same compound, the MIC ([12]; strain 10750, read-out: MIC) was 8 µg/mL (≈ 19.8 µM), the MIC ([12]; strain 10774, read-out: MIC) was 1 µg/mL (≈ 2.48 µM) and the MIC ([12]; strain 10817, read-out: MIC) was 0.5 µg/mL (≈ 1.24 µM). The MIC ([12]; strain 10837, read-out: MIC) was 0.5 µg/mL (≈ 1.24 µM), the MIC ([12]; strain 107266, read-out: MIC) was 0.5 µg/mL (≈ 1.24 µM) and the MIC ([12]; strain 107268, read-out: MIC) was 2 µg/mL (≈ 4.96 µM). It also gave an MIC ([12]; strain 108133, read-out: MIC) of 0.5 µg/mL (≈ 1.24 µM), an MIC ([13]; geometric mean over strains, read-out: MIC Geometric Mean) of 1.1 µg/mL (≈ 2.73 µM) and an MIC [13, 21] of 2.1 µg/mL (≈ 5.2 µM). It also gave an MIC ([13]; strain 101, read-out: MIC) of 1 µg/mL (≈ 2.48 µM), an MIC ([13]; strain 102) of 16 µg/mL (≈ 39.7 µM) and an MIC ([13]; strain 103, read-out: MIC) of 0.5 µg/mL (≈ 1.24 µM). The MIC ([13]; strain 105, read-out: MIC) was 0.5 µg/mL (≈ 1.24 µM), the MIC ([13]; strain 107, read-out: MIC) was 1 µg/mL (≈ 2.48 µM) and the MIC ([13]; strain 108, read-out: MIC) was 2 µg/mL (≈ 4.96 µM). The MIC ([13]; strain 109, read-out: MIC) was 1 µg/mL (≈ 2.48 µM), the MIC ([13]; strain 110, read-out: MIC) was 0.5 µg/mL (≈ 1.24 µM) and the MIC ([13]; strain 111, read-out: MIC) was 0.5 µg/mL (≈ 1.24 µM). For the same compound, the MIC ([13]; strain 112, read-out: MIC) was 2 µg/mL (≈ 4.96 µM), the MIC ([13]; strain 113, read-out: MIC) was 0.5 µg/mL (≈ 1.24 µM) and the MIC ([13]; strain 114, read-out: MIC) was 2 µg/mL (≈ 4.96 µM). For the same compound, the “Stability to β-lactamase” value [14] was 14, the “Stability to β-lactamase” value [15] was 25 and the “Stability to β-lactamase” value [16] was 3. For the same compound, the “Stability to β-lactamase” value [17] was 25, the “Stability to β-lactamase” value [18] was 210 and the “potency compared to known antibiotics” value [19] was “much more potent than those with which it was compared”.

Compound `C=CCOC(=O)NC(C(=O)O)c1csc2ccccc12` (stereo not shown) [N-Allyloxycarbonyl-(3-benzothienyl)glycine] has a pKa [20] of 5.7.
